# Experiments:
# [1] = tested on: TNF-α, IL-10 and IFN-γ secretion; assay: ELISA of other cytokines in PEC supernatants; type: cell-based, mouse; details: LPS + ATP, adenosine deaminase inhibition
# Procedure: (§1) FIGS. 1A-1J illustrate the finding that adenosine stimulates IL-1β production in NLRP3 inflammasome-dependent manner. Murine peritoneal macrophages (PECs) were obtained from wild type (WT) mice (FIGS. 1A-1D, 1F-1I), Il1r−/− (FIG. 1E) or Nlrp3−/−, ASC−/−, P2xr7−/−, or Caspase-1−/− mice (FIG. 1J) and were primed with LPS for 16 hours. FIG. 1A: This was followed by treatment for 1 hour with adenosine (Ad, 100 μM), adenosine deaminase inhibitor (EHNA, 10 μM), adenosine deaminase (ADA, 10 U ml^−1), ATP diphosphohydrolase (Apyrase, 10 U ml^−1), or erythro-9-(2-hydroxy-3-nonyl) adenine (EHNA, 10 μM) (FIGS. 1B, 1F-1J)). Pan adenosine agonist (NECA, 1 μM, 10 μM) (FIGS. 1C, 1E), or (FIGS. 1D, 1I) by NECA for 1 and 6 hours, and were then pulsed with ATP for 20 min. Enzyme-linked immunosobent assay (ELISA) of IL-1β, TNF-α, IL-10 and IFN-γ secretion were measured in cell supernatants after pulsing with ATP for 5 hours (FIGS. 1A, 1C-1E, 1J) or indicated time-course (FIGS. 1B, 1G-1I). LDH assay was performed after pulsing with ATP as indicated time-course (FIG. 1F). Data are expressed as the mean±SD from at least three independent experiments. *p<0.05 determined by Student's t-test.
# [2] = tested on: IL-1β production in murine peritoneal macrophages (PECs); assay: IL-1β secretion (ELISA) by primed, ATP-pulsed peritoneal macrophages (PECs); type: cell-based, mouse; details: CpG-B and ATP
# PECs = assay: LDH release (cell death) assay in PECs; type: cell-based; details: LPS + ATP treated PECs
# Procedure: as §1, with “Pan adenosine agonist (NECA, 1 μM, 10 μM) (FIGS. 1C, 1E), or (FIGS. 1D, 1I) by NECA for 1 and 6 hours, and were then pulsed with ATP for 20 min.” left out, “LDH assay was performed after pulsing with ATP as indicated time-course (FIG. 1F).” left out
# FIGS. 2A-2H illustrate the finding that adenosine mediates increase in IL-1β via the A2A receptor and amplifies signal 1 and signal 2 pathways. […] Data are expressed as the mean±SD from at least three independent experiments Immunoblots shown are representative results from at least three independent experiments. p<0.05 determined by Student's t-test.
# [3] = tested on: IL-1β production in murine peritoneal macrophages (PECs); assay: IL-1β secretion (ELISA) by primed, ATP-pulsed peritoneal macrophages (PECs); type: cell-based, mouse
# Procedure: as §1
# C57BL/6 mice were purchased from the National Cancer Institute. ASC−/−, Caspase-1−/−, Nlrp3−/− and P2xr7−/− mice have been described (Rock et al., 2010, Annu Rev Immunol. 28:321-42). A2ora2a flox/flox mice and LysMcre mice were purchased from Jackson Laboratories. HIF-1a flox/flox mice were kindly provided by Dr. Ruslan M Medzhitov (Yale University). 7- to 12-week-old males with a variety of genetic manipulations were used in most experiments. The number of mice in each experimental group was chosen based on previous experience with these experimental models. Mouse peritoneal macrophages (PECs) were isolated by peritoneal lavage 3 days after intraperitoneal injection of 4% thioglycollate solution (B2551, Fluka,). Cells were plated at the density of 3×10^6 cells in 12-well dishes and non-adherent cells were removed after 3 h. Cells primed overnight with 100 ng/ml LPS or 10 ng/ml Pam3CSK4 were treated with various chemicals and followed stimulation. Cells were cultured in DMEM medium complemented with 10% FBS, penicillin/streptomycin and L-glutamine. Mouse bone marrow derived macrophages were isolated from bone marrow cells, and were differentiated for 7 days in complete RPMI-1640 medium supplemented with 2 mM L-glutamine, 100 U/ml penicillin, 100 μg/ml streptomycin, 50 μM 2-mercaptoethanol (all from Invitrogen), 10% heat-inactivated FBS and 20 ng/ml M-CSF (PeproTech). Kupffer cells (KC) were isolated by the density gradient separation of Optiprep (Sigma), and then plates were gently washed and media was replenished after seeding cells for 2 hours to raise KC purity.
# Primed PECs were both pulsed for 20 min with 5 mM ATP or 10 μM nigericin, and left untreated until culture supernatants were collected. Secretion of IL-1β was determined by enzyme-linked immunoabsorbent assay (ELISA; R&D Systems).
smiles,measurement,setting,value
"CCCCCC[C@@H]([C@@H](C)O)n1cnc2c(N)ncnc21 (racemic) [EHNA, erythro-9-(2-hydroxy-3-nonyl) adenine]",production of IFN-γ,[1],increase
same,production of IL-10,[1],no effect
same,production of TNF-α,[1],reduction
same,IL-1β production,[2],increase
same,"LDH (lactate dehydrogenase) release, cell death",PECs,did not show correlation with the secretion of IL-1β
same,"IL-1β production, time course","[3]; LPS + ATP, time course",sustained increase
same,IL-1β production,[3]; LPS-primed PECs pulsed with ATP,significant increase
same,IL-1β production,[3]; in the absence of either LPS or ATP,did not result in any detectable IL-1β
same,IL-1β production by LPS and ATP,"[3]; macrophages lacking caspase-1, NLRP3, ASC or P2x7 receptor",did not result in significant production of IL-1β
